Here are results for 1 compound from patent US20250304526A1, “HIGH AND MULTIPLE REDOX POTENTIAL, STABLE, AND SOLUBLE BIS-DIARYLAMINE DERIVATIVES AND USES THEREOF” (University of Kentucky Research Foundation, priority 2024, published 2025).

The nature of this data set: Solubility determination in pure acetonitrile by mass measurement. Format: physicochemical. As for the experimental part: The solubility of the compounds in pure acetonitrile was determined by the mass measurement method described previously. Saturated solutions of each compound were prepared and filtered to remove any undissolved material. Afterwards, 3 mL of each solution were taken and added to previously weighed vials (the measurement was repeated three times for each solution, i.e. 3 vials for each solution). The vials were then stored open in a nitrogen-filled glove box to allow the slow evaporation of the solvent. After 10 days, acetonitrile was evaporated from all vials, leaving only the previously dissolved solid. The vials were then re-weighed and the mass of the solid was determined by subtracting the mass of the respective empty vial. The concentration of the compound was calculated from the mass of the dissolved solid and the volume of the sample placed into the vial.
The solubilities of 1-4 were examined in pure CH3CN using the mass measurement method.

As for `c1ccc(N(c2ccccc2)c2ccc(N(c3ccccc3)c3ccccc3)cc2)cc1` [A, N,N,N′,N′-Tetraphenyl-1,4-phenylenediamine, reference compound], the solubility result is listed as “virtually insoluble”.
